According to the supplement of paper PMC11451515:

What was measured:
Details in all cases: 48 h
NOMO1 [1] = assay: cell viability relative to DMSO control; higher = less cytotoxic
Summary of the method: (§1)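 Cells were incubated for 48 h at 37°C before CellTiter-Glo One luminescence was read. The cells were NOMO1 or SEM (500 cells/well) or P12-Ichikawa (1000 cells/well) leukemia cells, adapted for at least four passages in each medium and seeded in 1536-well plates (5 μl). Dosing used library compounds in DMSO applied by pin over 11 threefold points, 47 μM to 0.79 nM. Viability is the per-plate percentage of DMSO wells, with cell-free wells as background.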

P12-Ichikawa [2] = assay: as above
Summary of the method: as §1

SEM cells [3] = assay: as above
Summary of the method: as §1

NOMO1 [4] = assay: AUC of viability dose-response curve (% viability x log10 dose units); higher = less sensitive
Summary of the method: (§2)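 Medium-adapted leukemia cells in 1536-well plates, at 500 or 1000 cells/well, were incubated for 48 h at 37°C with library compounds in DMSO at 11 threefold doses from 47 μM to 0.79 nM. CellTiter-Glo One luminescence normalised per plate to DMSO and cell-free wells was fitted with a four-parameter log-logistic model over log10 doses. Area under the curve was integrated from this fit by trapezoidal rule, with curves beyond full viability scaled and failed quality-control curves removed.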

P12-Ichikawa [5] = assay: as above
Summary of the method: as §2

SEM cells [6] = assay: as above
Summary of the method: as §2

O=C(CC12CC3CC(CC(C3)C1)C2)Nc1cccc2nc(NCCNCCO)ccc12
cell viability [%]
Details	NOMO1 [1]	P12-Ichikawa [2]	SEM cells [3]
HPLM + 10% dialyzed FBS, 0.000781 µM	79.1	87.7	81.1
HPLM + 10% dialyzed FBS, 0.00234 µM	95.5	88.7	82.1
HPLM + 10% dialyzed FBS, 0.00702 µM	89.4	84.5	73.8
HPLM + 10% dialyzed FBS, 0.0211 µM	106	90.8	96.5
HPLM + 10% dialyzed FBS, 0.0632 µM	98	88.1	78.2
HPLM + 10% dialyzed FBS, 0.19 µM	90.7	91.2	77.8
HPLM + 10% dialyzed FBS, 0.569 µM	101	98.2	93.8
HPLM + 10% dialyzed FBS, 1.71 µM	89.8	88.1	64.1
HPLM + 10% dialyzed FBS, 5.12 µM	103	95.7	84.6
HPLM + 10% dialyzed FBS, 15.4 µM	90.7	92	101
HPLM + 10% dialyzed FBS, 46.1 µM	36.6	56.7	36.3
RPMI 5 mM glucose + 10% FBS, 0.000781 µM	81.2	84.7	90.5
RPMI 5 mM glucose + 10% FBS, 0.00234 µM	89.8	87.2	99.3
RPMI 5 mM glucose + 10% FBS, 0.00702 µM	83.9	85.6	83.6
RPMI 5 mM glucose + 10% FBS, 0.0211 µM	87.8	89.4	96.3
RPMI 5 mM glucose + 10% FBS, 0.0632 µM	82.4	88.8	75.6
RPMI 5 mM glucose + 10% FBS, 0.19 µM	90.5	86.3	76.1
RPMI 5 mM glucose + 10% FBS, 0.569 µM	81	87.4	94.4
RPMI 5 mM glucose + 10% FBS, 1.71 µM	87.4	81.9	83.3
RPMI 5 mM glucose + 10% FBS, 5.12 µM	86.4	89.2	82.7
RPMI 5 mM glucose + 10% FBS, 15.4 µM	96.4	94.1	101
RPMI 5 mM glucose + 10% FBS, 46.1 µM	54.1	57.6	21.9
RPMI 5 mM glucose + 10% dialyzed FBS, 0.000781 µM	73.5	82	82.8
RPMI 5 mM glucose + 10% dialyzed FBS, 0.00234 µM	90.7	86.6	87.7
RPMI 5 mM glucose + 10% dialyzed FBS, 0.00702 µM	83.2	85.7	65.3
RPMI 5 mM glucose + 10% dialyzed FBS, 0.0211 µM	97.2	99.4	94.8
RPMI 5 mM glucose + 10% dialyzed FBS, 0.0632 µM	86.7	91.4	81.6
RPMI 5 mM glucose + 10% dialyzed FBS, 0.19 µM	80.5	94.8	72.5
RPMI 5 mM glucose + 10% dialyzed FBS, 0.569 µM	82.4	90.3	102
RPMI 5 mM glucose + 10% dialyzed FBS, 1.71 µM	82.3	85.8	78.7
RPMI 5 mM glucose + 10% dialyzed FBS, 5.12 µM	77.4	77.6	94.6
RPMI 5 mM glucose + 10% dialyzed FBS, 15.4 µM	95.3	93.8	82.6
RPMI 5 mM glucose + 10% dialyzed FBS, 46.1 µM	57.7	42.4	40

AUC of viability dose-response curve
Details	NOMO1 [4]	P12-Ichikawa [5]	SEM cells [6]
HPLM + 10% dialyzed FBS	436	424	386
RPMI 5 mM glucose + 10% FBS	406	410	405
RPMI 5 mM glucose + 10% dialyzed FBS	399	412	392

Cc1nc(NC(=O)N2CCC[C@H]2C(N)=O)sc1-c1csc(C(C)(C)C)n1
AUC of viability dose-response curve
Details	NOMO1 [4]	P12-Ichikawa [5]	SEM cells [6]
HPLM + 10% dialyzed FBS	323	331	309
RPMI 5 mM glucose + 10% FBS	346	334	302
RPMI 5 mM glucose + 10% dialyzed FBS	335	350	312

O=C1NCCc2[nH]c(-c3ccncc3)cc21
SEM cells [3], HPLM + 10% dialyzed FBS
Details	cell viability [%]
0.000781 µM	106
0.00234 µM	118
0.00702 µM	119
0.0211 µM	128
0.0632 µM	133
0.19 µM	140
0.569 µM	147
1.71 µM	149
5.12 µM	149
15.4 µM	41.2
46.1 µM	8.55

AUC of viability dose-response curve
Details	NOMO1 [4]	P12-Ichikawa [5]	SEM cells [6]
HPLM + 10% dialyzed FBS	428	433	421
RPMI 5 mM glucose + 10% FBS	439	428	423
RPMI 5 mM glucose + 10% dialyzed FBS	431	426	430
